Laboratory results taken from PubChem BioAssay AID248 (DTP/NCI, 2004).
“And” between values parts separate entries of the source, which are not always exact repeats. Equal entries are not always repeated. Inconclusive results and toxic doses are left out. Cut-off read from the data, not from the text of the source: active = T/C of 150% or more; inactive = T/C below 125%.

Tested on: L1210 leukemia ip in BDF1 mice, survival T/C
Assay: NCI In Vivo Anticancer Drug Screen. Data for tumor model L1210 Leukemia (intraperitoneal) in B6D2F1 (BDF1) mice
Conditions: endpoint: mean survival time, higher = longer survival
How it was run: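 Antitumor effect is assessed in tumor-bearing animals. Survival in the compound arm is compared with a vehicle-dosed control arm and expressed as their quotient.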

[1] = dose: 100.0 mg/kg/injection, schedule: Q04DX002 (ip), vehicle: saline with Tween-80
[2] = dose: 200.0 mg/kg/injection, schedule: Q04DX002 (ip), vehicle: saline with Tween-80
[3] = dose: 400.0 mg/kg/injection, schedule: Q04DX002 (ip), vehicle: saline with Tween-80
[4] = dose: 100.0 mg/kg/injection, schedule: Q04DX003 (ip), vehicle: saline
[5] = dose: 200.0 mg/kg/injection, schedule: Q04DX003 (ip), vehicle: saline
[6] = dose: 100.0 mg/kg/injection, schedule: Q04DX003 (ip), vehicle: Klucel (hydroxypropylcellulose) (HPC)
[7] = dose: 200.0 mg/kg/injection, schedule: Q04DX003 (ip), vehicle: Klucel (hydroxypropylcellulose) (HPC)
[8] = dose: 100.0 mg/kg/injection, schedule: Q01DX001 (ip), vehicle: Klucel (hydroxypropylcellulose) (HPC)
[9] = dose: 100.0 mg/kg/injection, schedule: Q01DX009 (ip), vehicle: Klucel (hydroxypropylcellulose) (HPC)
[10] = dose: 200.0 mg/kg/injection, schedule: Q01DX001 (ip), vehicle: Klucel (hydroxypropylcellulose) (HPC)
[11] = dose: 200.0 mg/kg/injection, schedule: Q01DX009 (ip), vehicle: Klucel (hydroxypropylcellulose) (HPC)
[12] = dose: 400.0 mg/kg/injection, schedule: Q01DX001 (ip), vehicle: Klucel (hydroxypropylcellulose) (HPC)
[13] = dose: 100.0 mg/kg/injection, schedule: Q01DX001 (ip), vehicle: saline
[14] = dose: 200.0 mg/kg/injection, schedule: Q01DX001 (ip), vehicle: saline
[15] = dose: 400.0 mg/kg/injection, schedule: Q01DX001 (ip), vehicle: saline
[16] = dose: 100.0 mg/kg/injection, schedule: Q01DX001 (ip), vehicle: saline with Tween-80
[17] = dose: 100.0 mg/kg/injection, schedule: Q01DX009 (ip), vehicle: saline with Tween-80
[18] = dose: 200.0 mg/kg/injection, schedule: Q01DX001 (ip), vehicle: saline with Tween-80
[19] = dose: 200.0 mg/kg/injection, schedule: Q01DX009 (ip), vehicle: saline with Tween-80
[20] = dose: 400.0 mg/kg/injection, schedule: Q01DX001 (ip), vehicle: saline with Tween-80
[21] = dose: 100.0 mg/kg/injection, schedule: Q04DX003 (ip), vehicle: saline with Tween-80
[22] = dose: 200.0 mg/kg/injection, schedule: Q04DX003 (ip), vehicle: saline with Tween-80
[23] = dose: 400.0 mg/kg/injection, schedule: Q04DX003 (ip), vehicle: saline with Tween-80

Measured: T/C

C=CCc1cc(OC)c(OCc2ccccc2)cc1[N+](=O)[O-]
inactive: [1] 101 % of control | [2] 87 % of control | [3] 90 % of control

NC(=O)CSSCC(N)=O
inactive: [4] 98 % of control | [5] 93 % of control

O/N=C1\c2ccccc2-c2cc(Cl)ccc21
inactive: dose: 100.0 mg/kg/injection, schedule: Q01DX001 (ip), vehicle: carboxymethylcellulose (CMC) 94 % of control | dose: 200.0 mg/kg/injection, schedule: Q01DX001 (ip), vehicle: carboxymethylcellulose (CMC) 109 % of control | dose: 400.0 mg/kg/injection, schedule: Q01DX001 (ip), vehicle: carboxymethylcellulose (CMC) 103 % of control

Cc1cc[n+]2cc3ccc4ccccc4c3c(C)c2c1
inactive: dose: 2.0 mg/kg/injection, schedule: Q01DX015 (ip), vehicle: saline 102 % of control | dose: 3.12 mg/kg/injection, schedule: Q01DX009 (ip), vehicle: acetone 106 % of control | dose: 4.0 mg/kg/injection, schedule: Q01DX015 (ip), vehicle: saline 95 % of control | dose: 6.25 mg/kg/injection, schedule: Q01DX009 (ip), vehicle: acetone 101 % of control | dose: 8.0 mg/kg/injection, schedule: Q01DX015 (ip), vehicle: saline 101 % of control | dose: 12.5 mg/kg/injection, schedule: Q04DX003 (ip), vehicle: acetone 106 % of control | dose: 16.0 mg/kg/injection, schedule: Q01DX015 (ip), vehicle: saline 118 % of control

NNc1ncccn1
inactive: dose: 5.0 mg/kg/injection, schedule: Q01DX001 (ip), vehicle: saline 102 % of control | dose: 10.0 mg/kg/injection, schedule: Q01DX001 (ip), vehicle: saline 109 % of control | dose: 20.0 mg/kg/injection, schedule: Q01DX001 (ip), vehicle: saline 113 % of control

C[Si](C)(CCl)c1ccccc1
inactive: [4] 107 % of control | [5] 105 % of control | dose: 400.0 mg/kg/injection, schedule: Q04DX003 (ip), vehicle: saline 100 % of control

Cc1cc(Br)c2c(c1O)C13CCN(C)C(C2)C1CC(Br)C(=O)C3 (stereo not drawn)
inactive: dose: 1.56 mg/kg/injection, schedule: Q01DX001 (ip), vehicle: saline 97 % of control | dose: 3.12 mg/kg/injection, schedule: Q01DX001 (ip), vehicle: saline 100 % of control | dose: 6.25 mg/kg/injection, schedule: Q01DX001 (ip), vehicle: saline 105 % of control | dose: 12.5 mg/kg/injection, schedule: Q01DX001 (ip), vehicle: saline 108 % of control

C=CCNC(=O)N(CC)C(=NCC)c1ccc(NC(=O)c2ccc(C(=O)Nc3ccc(C(=NCC)N(CC)C(=O)NCC=C)cc3)cc2)cc1
inactive: dose: 3.87 mg/kg/injection, schedule: Q01DX015 (ip), vehicle: methylcellulose (MC) 104 % of control

Cc1ccc(C(=O)C=Nc2ccc(C(=O)O)cc2)cc1
inactive: [6] 97 % of control | [7] 97 % of control

C1=Cc2c3c(c4c(c2C1)C=CC4)CC=C3
inactive: dose: 25.0 mg/kg/injection, schedule: Q01DX001 (ip), vehicle: Klucel (hydroxypropylcellulose) (HPC) 93 % of control | dose: 50.0 mg/kg/injection, schedule: Q01DX001 (ip), vehicle: Klucel (hydroxypropylcellulose) (HPC) 97 % of control | [8] 101 % of control | [9] 95 % of control | [10] 92 % of control | [11] 88 % of control | [12] 93 % of control | dose: 400.0 mg/kg/injection, schedule: Q01DX009 (ip), vehicle: Klucel (hydroxypropylcellulose) (HPC) 95 % of control

Cc1cc(Nc2ccc(C)c(C)c2)nc(N)n1
inactive: dose: 100.0 mg/kg/injection, schedule: Q01DX Z (ip), vehicle: methylcellulose (MC) 108 % of control

c1ccc2c(c1)OC1OC2Oc2ccccc21
inactive: [13] 97 % of control | dose: 177.0 mg/kg/injection, schedule: Q01DX001 (ip), vehicle: saline 104 % of control and 92 % of control | [14] 101 % of control | dose: 266.0 mg/kg/injection, schedule: Q01DX001 (ip), vehicle: saline 93 % of control and 94 % of control | [15] 88 % of control and 90 % of control | dose: 600.0 mg/kg/injection, schedule: Q01DX001 (ip), vehicle: saline 86 % of control and 92 % of control

Cc1ccc(S(=O)(=O)Nc2ccc3ncccc3c2)cc1
inactive: [13] 103 % of control | [14] 102 % of control | [15] 96 % of control

Cc1cccc(P(=O)(c2ccccc2)c2ccccc2)c1 (tested in a mixture with another compound)
inactive: [1] 104 % of control | [2] 96 % of control | [3] 88 % of control

O=c1ccn(-c2ccccc2)c(=S)[nH]1
inactive: [16] 96 % of control | [17] 95 % of control | [18] 96 % of control | [19] 95 % of control | [20] 100 % of control

COc1ccc(C(=O)/C=C/c2ccc(OCc3ccccc3)c(OC)c2)cc1OC
inactive: dose: 100.0 mg/kg/injection, schedule: Q04DX003 (ip), vehicle: water 93 % of control | dose: 200.0 mg/kg/injection, schedule: Q04DX003 (ip), vehicle: water 93 % of control | dose: 400.0 mg/kg/injection, schedule: Q04DX003 (ip), vehicle: water 91 % of control

CC(C)c1cc(C(C)C)c(C(=O)Oc2c(Br)cc(Br)cc2Br)c(C(C)C)c1
inactive: [17] 95 % of control | [21] 98 % of control | [19] 92 % of control | [22] 93 % of control | [23] 90 % of control

COC(=O)c1cccc(O)c1
inactive: [16] 94 % of control | [18] 91 % of control | [20] 98 % of control

CC(=O)OC1CCC2(C)C3CCC4(C)C(O)CCC4C3CC(O)C2(O)C1 (stereo not drawn)
inactive: [17] 110 % of control | [19] 97 % of control | dose: 400.0 mg/kg/injection, schedule: Q01DX009 (ip), vehicle: saline with Tween-80 94 % of control

O=C(Nc1cccc(Cl)c1)Oc1ccc2ccccc2c1
inactive: dose: 100.0 mg/kg/injection, schedule: Q01DX009 (ip), vehicle: saline 90 % of control | dose: 100.0 mg/kg/injection, schedule: Q04DX004 (ip), vehicle: saline 104 % of control | dose: 200.0 mg/kg/injection, schedule: Q01DX009 (ip), vehicle: saline 101 % of control | dose: 200.0 mg/kg/injection, schedule: Q04DX004 (ip), vehicle: saline 90 % of control | dose: 400.0 mg/kg/injection, schedule: Q01DX009 (ip), vehicle: saline 101 % of control | dose: 400.0 mg/kg/injection, schedule: Q04DX004 (ip), vehicle: saline 98 % of control

C(=N\Nc1nc2ccccc2s1)/c1ccc2ccccc2n1
inactive: [9] 96 % of control | [11] 96 % of control

Clc1ccc2c(c1)/C(=C\c1ccnc3ccccc13)c1cc(Cl)cc(Cl)c1-2
inactive: [8] 94 % of control | [9] 93 % of control | [6] 93 % of control | [10] 92 % of control | [11] 98 % of control | [7] 88 % of control | [12] 94 % of control | dose: 400.0 mg/kg/injection, schedule: Q04DX003 (ip), vehicle: Klucel (hydroxypropylcellulose) (HPC) 88 % of control

O=C(O)C(=C(c1ccccc1)c1ccccc1)c1cccc2ccccc12
inactive: dose: 50.0 mg/kg/injection, schedule: Q04DX002 (ip), vehicle: Klucel (hydroxypropylcellulose) (HPC) 98 % of control | [9] 101 % of control | dose: 100.0 mg/kg/injection, schedule: Q04DX002 (ip), vehicle: Klucel (hydroxypropylcellulose) (HPC) 100 % of control | dose: 200.0 mg/kg/injection, schedule: Q04DX002 (ip), vehicle: Klucel (hydroxypropylcellulose) (HPC) 100 % of control

CC(N)CSC(=O)c1ccccc1 (stereo not drawn)
inactive: [21] 100 % of control | [22] 100 % of control | [23] 94 % of control

CNC(=O)NC(=O)C(C)(C)Oc1ccc(Cl)cc1
inactive: [4] 97 % of control | [5] 94 % of control
